Laboratory results published in ChEMBL document CHEMBL1201862, “PubChem BioAssay data set” (2004).
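Step 1: Grow cells in 96-well plates. Step 2: Expose to compound for 48 hours at 5 concentrations. Step 3: Interpolate endpoints linearly; if unreached, use highest concentration. Abbreviation: GI50, concentration required for 50% inhibition of growth.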 Active and inactive are the calls of the source. Cut-off read from the data, not from the text of the source: active = GI50 up to about 1.1 µM and inactive = higher.

Legend:
Experiment in all cases: NCI anticancer screen, dose series, 48 h
SK-OV-3 = system: SK-OV-3
BT-549 = system: BT-549
TK-10 = system: TK-10
HOP-92 = system: HOP-92
IGROV-1 = system: IGROV-1
NCI-H522 = system: NCI-H522
T47D = system: T47D
MDA-N = system: MDA-N
MDA-MB-231 = system: MDA-MB-231
SK-MEL-2 = system: SK-MEL-2
HT-29 = system: HT-29
CCRF-CEM = system: CCRF-CEM
A498 = system: A498
HOP-62 = system: HOP-62
A549 = system: A549
SNB-19 = system: SNB-19
SK-MEL-5 = system: SK-MEL-5
HCC 2998 = system: HCC 2998

Measured: GI50

COc1ccc2cc(C(=O)CCC(=O)O)ccc2c1
inactive: SK-OV-3 > 100 µM | BT-549 > 100 µM | TK-10 > 100 µM | HOP-92 > 100 µM | IGROV-1 > 100 µM | NCI-H522 > 100 µM | T47D > 100 µM | MDA-N > 100 µM | MDA-MB-231 > 100 µM | SK-MEL-2 > 100 µM | HT-29 > 100 µM | CCRF-CEM > 100 µM | A498 > 100 µM | HOP-62 > 100 µM | A549 > 100 µM | SNB-19 > 100 µM | SK-MEL-5 > 100 µM

O=C(Oc1cccc(Cl)c1)c1cc2cc(CCl)ccc2oc1=O
inactive: SK-OV-3 > 100 µM | BT-549 > 100 µM | TK-10 32.1 µM | HOP-92 19.8 µM | IGROV-1 39.2 µM | NCI-H522 15.3 µM | T47D 31.5 µM | MDA-N 24.5 µM | MDA-MB-231 > 100 µM | HCC 2998 16 µM | SK-MEL-2 12.6 µM | HT-29 30.5 µM | HOP-62 42.9 µM | A549 33 µM | SNB-19 36.8 µM | SK-MEL-5 16.9 µM

CC(C)NC(=O)OCc1c2c(n(C)c1COC(=O)NC(C)C)-c1cc(Cl)c(Cl)cc1CC2
inactive: SK-OV-3 33.7 µM | BT-549 68.2 µM | TK-10 25.2 µM | HOP-92 19.5 µM | IGROV-1 20.3 µM | T47D 22.6 µM | MDA-N 32 µM | MDA-MB-231 15.5 µM | HCC 2998 14.9 µM | SK-MEL-2 25.2 µM | HT-29 31 µM | CCRF-CEM 17.2 µM | A498 6.37 µM | HOP-62 54.5 µM | A549 61 µM | SNB-19 37.8 µM | SK-MEL-5 42.7 µM

O=S(=O)(O)c1cc(S(=O)(=O)O)c2c(Nc3ccnc4ccccc34)ccc(S(=O)(=O)O)c2c1
inactive: SK-OV-3 > 100 µM | BT-549 > 100 µM | TK-10 > 100 µM | IGROV-1 > 100 µM | NCI-H522 > 100 µM | T47D > 100 µM | MDA-N > 100 µM | MDA-MB-231 > 100 µM | HCC 2998 > 100 µM | SK-MEL-2 > 100 µM | HT-29 > 100 µM | CCRF-CEM > 100 µM | A498 > 100 µM | HOP-62 > 100 µM | A549 > 100 µM | SNB-19 > 100 µM | SK-MEL-5 > 100 µM

CC(=O)OC1CCC2(C)C(=CCC3C2CCC2(C)C3CC3OC4(CCC(C)CN4)C(C)C32)C1 (stereo unspecified)
inactive: SK-OV-3 > 100 µM | BT-549 > 100 µM | TK-10 > 100 µM | HOP-92 > 100 µM | IGROV-1 > 100 µM | NCI-H522 > 100 µM | T47D > 100 µM | MDA-N > 100 µM | MDA-MB-231 > 100 µM | SK-MEL-2 > 100 µM | HT-29 > 100 µM | CCRF-CEM > 100 µM | A498 > 100 µM | HOP-62 > 100 µM | A549 > 100 µM | SNB-19 > 100 µM | SK-MEL-5 > 100 µM

O=C(O)/C(Cc1c[nH]nn1)=N\O
inactive: SK-OV-3 > 100 µM | BT-549 > 100 µM | TK-10 > 100 µM | HOP-92 > 100 µM | IGROV-1 > 100 µM | NCI-H522 > 100 µM | T47D > 100 µM | MDA-N > 100 µM | MDA-MB-231 > 100 µM | SK-MEL-2 > 100 µM | HT-29 > 100 µM | CCRF-CEM > 100 µM | A498 > 100 µM | HOP-62 > 100 µM | A549 > 100 µM | SNB-19 > 100 µM | SK-MEL-5 > 100 µM
